System: WT Mtb Erdman strain
Test: Microplate Alamar Blue Assay (MABA), Mtb growth inhibition
Type: cell-based, Mycobacterium tuberculosis
Conditions: Mycobacterium tuberculosis, ERDMAN, 168 h, Middlebrook 7H9 media, 7 days at 37° C. in 5% CO2

| SMILES | IC50 [nM] |
| --- | --- |
| CCc1nc(NCCCc2ccc(-c3ccncc3)cc2)c2cc(C)sc2n1 [Example 271, 2-ethyl-6-methyl-N-(3-(4-(pyridin-4-yl)phenyl)propyl) thieno[2,3-d]pyrimidin-4-amine] | 350 |
| CCc1nc(NCCCc2ccc(-c3ccc(S(C)(=O)=O)cc3)cc2)c2cc(C)sc2n1 [Example 272, 2-ethyl-6-methyl-N-(3-(4′-(methylsulfonyl)-[1,1′-biphenyl]-4-yl)propyl)thieno [2,3-d]pyrimidin-4-amine] | 270 |
| CCc1nc(NCCCc2ccc(-c3ccc(Cl)cc3)cc2)c2cc(C)sc2n1 [Example 273, N-(3-(4′-chloro-[1,1′-biphenyl]-4-yl)propyl)-2-ethyl-6-methylthieno[2,3-d]pyrimidin-4-amine] | 38 |
| CCc1nc(NCCCc2ccc(-c3ccc(OC)cc3)cc2)c2cc(C)sc2n1 [Example 274, 2-ethyl-N-(3-(4′-methoxy-[1,1′-biphenyl]-4-yl)propyl)-6-methylthieno[2,3-d]pyrimidin-4-amine] | 76 |
| CCc1nc(NCCCc2ccc(-c3cccnc3)cc2)c2cc(C)sc2n1 [Example 275, 2-ethyl-6-methyl-N-(3-(4-(pyridin-3-yl)phenyl)propyl) thieno[2,3-d]pyrimidin-4-amine] | 180 |
| CCc1nc(NCCCc2ccc(-c3ccc(F)c(F)c3)cc2)c2cc(C)sc2n1 [Example 276, N-(3-(3′,4′-difluoro-[1,1′-biphenyl]-4-yl)propyl)-2-ethyl-6-methylthieno[2,3-d]pyrimidin-4-amine] | 930 |
| CCc1nc(NCCCc2ccc(-c3ccc(NS(C)(=O)=O)cc3)cc2)c2cc(C)sc2n1 [Example 277, N-(4′-(3-((2-ethyl-6-methylthieno[2,3-d]pyrimidin-4-yl)amino)propyl)-[1,1′-biphenyl]-4-yl)methanesul-fonamide] | 630 |
| CCc1nc(NCCCc2ccc(-c3ccc(=O)[nH]c3)cc2)c2cc(C)sc2n1 [Example 278, 5-(4-(3-((2-ethyl-6-methylthieno[2,3-d]pyrimidin-4-yl)amino)propyl)phenyl)pyridin-2(1H)-one] | 710 |
| CCc1nc(NCCCc2ccc(-c3ccc(NC(C)=O)cc3)cc2)c2cc(C)sc2n1 [Example 279, N-(4′-(3-((2-ethyl-6-methylthieno[2,3-d]pyrimidin-4-yl)amino)propyl)-[1,1′-biphenyl]-4-yl)acetamide] | 1100 |
| CCc1nc(NCCCc2ccc(-c3cccc(OC(F)(F)F)c3)cc2)c2cc(C)sc2n1 [Example 280] | 140 |
| CCc1nc(NCCCc2ccc(-c3ccc(Cl)c(Cl)c3)cc2)c2cc(C)sc2n1 [Example 281, N-(3-(3′,4′-dichloro-[1,1′-biphenyl]-4-yl)propyl)-2-ethyl-6-methylthieno[2,3-d]pyrimidin-4-amine] | 44 |
| Cc1cc2c(NCCCc3ccc(-c4ccc(Cl)cc4)cc3)nc(C(F)(F)F)nc2s1 [Example 282, N-(3-(4′-chloro-[1,1′-biphenyl]-4-yl)propyl)-6-methyl-2-(trifluoromethyl) thieno[2,3-d]pyrimidin-4-amine] | 130 |
| CCc1nc(NCCCc2ccc(-c3cccc(S(C)(=O)=O)c3)cc2)c2cc(C)sc2n1 [Example 283, 2-ethyl-6-methyl-N-(3-(3′-(methylsulfonyl)-[1,1′-biphenyl]-4-yl)propyl)thieno [2,3-d]pyrimidin-4-amine] | 3200 |
| CCc1nc(NCCCc2ccc(-c3cccc(C(=O)NC)c3)cc2)c2cc(C)sc2n1 [Example 284, 4′-(3-((2-ethyl-6-methylthieno[2,3-d]pyrimidin-4-yl)amino)propyl) N-methyl-[1,1′-biphenyl]-3-carboxamide] | 2900 |
| Cc1cc2c(NCCCc3ccc(-c4ccc(OC(F)(F)F)cc4)cc3)nc(-c3ccc(OC(F)(F)F)cc3)nc2s1 [Example 285, 6-methyl-N-(3-(4′-(trifluoromethoxy)-[1,1′-biphenyl]-4-yl)propyl)-2-(4-(trifluoromethoxy)phenyl)thieno [2,3-d]pyrimidin-4-amine] | > 10000 |
| Cc1cc2c(NCCCc3ccc(-c4ccc(OC(F)(F)F)cc4)cc3)nc(-c3ccccn3)nc2s1 [Example 286, 6-methyl-2-(pyridin-2-yl)-N-(3-(4′-(trifluoromethoxy)-[1,1′-biphenyl]-4-yl)propyl)thieno [2,3-d]pyrimidin-4-amine] | 130 |
| Cc1cc2c(NCCCc3ccc(-c4ccc(F)c(F)c4)cc3)nc(C(F)(F)F)nc2s1 [Example 287, N-(3-(3′,4′-difluoro-[1,1′-biphenyl]-4-yl)propyl)-6-methyl-2-(trifluoromethyl) thieno[2,3-d]pyrimidin-4-amine] | 190 |
| COc1ccc(-c2ccc(CCCNc3nc(C(F)(F)F)nc4sc(C)cc34)cc2)cc1 [Example 288, N-(3-(4′-methoxy-[1,1′-biphenyl]-4-yl)propyl)-6-methyl-2-(trifluoromethyl) thieno[2,3-d]pyrimidin-4-amine] | 310 |

| SMILES | IC50 [nM] |
| --- | --- |
| CSc1nc(NCCCc2ccc(-c3ccc(OC(F)(F)F)cc3)cc2)c2cc(C)sc2n1 [Example 289, 6-methyl-2-(methylthio)-N-(3-(4′-(trifluoromethoxy)-[1,1′-biphenyl]-4-yl)propyl)thieno [2,3-d]pyrimidin-4-amine] | 8 |
| Cc1cc2c(NCCCc3ccc(-c4ccc(Cl)c(Cl)c4)cc3)nc(C(F)(F)F)nc2s1 [Example 290, N-(3-(3′,4′-dichloro-[1,1′-biphenyl]-4-yl)propyl)-6-methyl-2-(trifluoromethyl) thieno[2,3-d]pyrimidin-4-amine] | 390 |
| Cc1cc2c(NCCCc3ccc(-c4ccc(OC(F)(F)F)cc4)cc3)nc(-c3ccoc3)nc2s1 [Example 291, 2-(furan-3-yl)-6-methyl-N-(3-(4′-(trifluoromethoxy)-[1,1′-biphenyl]-4-yl)propyl)thieno [2,3-d]pyrimidin-4-amine] | 8 |
| CSc1nc(NCCCc2ccc(-c3ccc(OC(F)(F)F)cc3)cc2)c2nc(C)sc2n1 [Example 292, 2-methyl-5-(methylthio)-N-(3-(4′-(trifluoromethoxy)-[1,1′-biphenyl]-4-yl)propyl)thiazolo [5,4-d]pyrimidin-7-amine] | 16 |
| Cc1cc2c(NCCCc3ccc(-c4cccnc4)cc3)nc(C(F)(F)F)nc2s1 [Example 293, 6-methyl-N-(3-(4-(pyridin-3-yl)phenyl)propyl)-2-(trifluoromethyl) thieno [2,3-d]pyrimidin-4-amine] | 2500 |
| Cc1nc2c(NCCCc3ccc(-c4ccc(OC(F)(F)F)cc4)cc3)nc(-c3ccoc3)nc2s1 [Example 294, 5-(furan-3-yl)-2-methyl-N-(3-(4′-(trifluoromethoxy)-[1,1′-biphenyl]-4-yl)propyl)thiazolo [5,4-d]pyrimidin-7-amine] | 89 |
| Cc1cc2c(NCCCc3ccc(-c4ccc(OC(F)(F)F)cc4)cc3)nc(-c3ccc(F)cc3)nc2s1 [Example 295, 2-(4-fluorophenyl)-6-methyl-N-(3-(4′-(trifluoromethoxy)-[1,1′-biphenyl]-4-yl)propyl)thieno [2,3-d]pyrimidin-4-amine] | 400 |
| FC(F)(F)Oc1ccc(-c2ccc(CCCNc3nc(C(F)(F)F)nc4sccc34)cc2)cc1 [Example 296, N-(3-(4′-(trifluoromethoxy)-[1,1′-biphenyl]-4-yl)propyl)-2-(trifluoromethyl) thieno[2,3-d]pyrimidin-4-amine] | 270 |
| CCc1nc(NCCCc2ccc(-c3ccc(C(F)(F)F)nc3)cc2)c2cc(C)sc2n1 [Example 297, 2-ethyl-6-methyl-N-(3-(4-(6-(trifluoromethyl)pyridin-3-yl)phenyl)propyl) thieno[2,3-d]pyrimidin-4-amine] | 34 |
| Cc1cc2c(NCCCc3ccc(-c4ccc(Cl)c(Cl)c4)cc3)nc(-c3ccoc3)nc2s1 [Example 298, N-(3-(3′,4′-dichloro-[1,1′-biphenyl]-4-yl)propyl)-2-(furan-3-yl)-6-methylthieno[2,3-d]pyrimidin-4-amine] | 26 |
| CCc1nc(NCCCc2ccc(-c3ccc(N(C)C)cc3)cc2)c2cc(C)sc2n1 [Example 299, N-(3-(4′-(dimethylamino)-[1,1′-biphenyl]-4-yl)propyl)-2-ethyl-6-methylthieno[2,3-d]pyrimidin-4-amine] | 26 |
| CCc1nc(NCCCc2ccc(-c3ccc(Cl)cc3Cl)cc2)c2cc(C)sc2n1 [Example 300, N-(3-(2′,4′-dichloro-[1,1′-biphenyl]-4-yl)propyl)-2-ethyl-6-methylthieno[2,3-d]pyrimidin-4-amine] | 76 |
| CCc1nc(NCCCc2ccc(-c3ccc(Cl)c(F)c3)cc2)c2cc(C)sc2n1 [Example 301, N-(3-(4′-chloro-3′-fluoro-[1,1′-biphenyl]-4-yl)propyl)-2-ethyl-6-methylthieno[2,3-d]pyrimidin-4-amine] | 45 |
| CCc1nc(NCCCc2ccc(-c3ccc(C4CC4)cc3)cc2)c2cc(C)sc2n1 [Example 302, N-(3-(4′-cyclopropyl-[1,1′-biphenyl]-4-yl)propyl)-2-ethyl-6-methylthieno[2,3-d]pyrimidin-4-amine] | 27 |
| CCc1nc(NCCCc2ccc(-c3ccc(C#N)cc3)cc2)c2cc(C)sc2n1 [Example 303, 4′-(3-((2-ethyl-6-methylthieno[2,3-d]pyrimidin-4-yl)amino)propyl)-[1,1′-biphenyl]-4-carbonitrile] | 37 |
| CCc1nc(NCCCc2ccc(-c3ccc(F)cc3)cc2)c2cc(C)sc2n1 [Example 304, 2-ethyl-N-(3-(4′-fluoro-[1,1′-biphenyl]-4-yl)propyl)-6-methylthieno[2,3-d]pyrimidin-4-amine] | 40 |
| CCc1nc(NCCCc2ccc(-c3ccc(OC4CC4)cc3)cc2)c2cc(C)sc2n1 [Example 305, N-(3-(4′-cyclopropoxy-[1,1′-biphenyl]-4-yl)propyl)-2-ethyl-6-methylthieno[2,3-d]pyrimidin-4-amine] | 57 |
| CCc1nc(NCCCc2ccc(-c3ccc(OC(F)(F)F)c(F)c3)cc2)c2cc(C)sc2n1 [Example 306, 2-ethyl-N-(3-(3′-fluoro-4′-(trifluoromethoxy)-[1,1′-biphenyl]-4-yl)propyl)-6-methylthieno[2,3-d]pyrimidin-4-amine] | 47 |
